Measured values as given in PMC12811658, “Design, Synthesis, and Structural Evolution of Pseudo‐Natural Product IDO1 Inhibitors and Degraders” (Angewandte Chemie (International Ed. in English), 2025).
Where two headings read alike, the source gives them in different places.

Key:
[1] = system: Kyn levels in BxPC3 cells (kynurenine generated by IDO1); assay: Cellular Kyn assay (automated Kyn screening assay); type: cell-based; conditions: IFN-γ, L-Trp and compounds 48 h, mean ± SD, read-out: IC50 (Kyn assay), reduction of kynurenine levels
recombinant human IDO1 = molecular target: T1, recombinant human IDO1 (Homo sapiens, UniProt P14902); assay: IDO1 enzymatic assay in vitro; type: biochemical; conditions: for IDO1 activity IC50 [µM] (in vitro assay): determined if inhibition at 14 µM higher than 50%
T1 construct: The GST-tag of IDO1 was removed to obtain untagged full-length IDO1l using PreScission protease; GST (N, cleaved yes); made in house; own inference

[2] = molecular target: T2, heme-bound IDO1 (holo-IDO1) (Homo sapiens, UniProt P14902); assay: UV/Vis detection of heme-bound IDO1 (heme displacement); type: binding; conditions: 50 µM, 37 °C, 3 h, Soret band 404 nm
T2 construct: The GST-tag of IDO1 was removed to obtain untagged full-length IDO1l using PreScission protease; GST (N, cleaved yes); made in house; own inference
Experimental: (§1) Incubation at 37 °C for 3 h. Representative data for n = 3. c) Time‐course of heme displacement from IDO1 detected by the absorbance at the Soret peak (404 nm) as a function of time. […] All curves were fit using a one‐site model with N = 1 and defined IDO1 concentration. Left plots show baseline corrected data, while right plots show integrated binding isotherms versus iDegs/IDO1 ratio. IDO1 protein (125 µM) was titrated into the stirred sample cell containing iDegs (25 µM, except for iDeg‐8 at 50 µM). Representative data for n = 3, except for iDeg‐9 (n = 2). g)–i) In vivo activity of iDeg‐6. NSG immunodeficient mice were injected with SKOV‐3 cells. Mice were treated with 18 intraperitoneal injections of iDeg‐6 (30 mg kg^−1) or vehicle. The pharmacological treatment was twice daily. Tumor volume was determined weekly by digital caliper. g) SKOV‐3 tumor growth curves in iDeg‐6‐treated mice (n = 12, green lines) or vehicle‐treated mice (n = 13, gray lines). Statistical analysis was performed by two‐way ANOVA: ****p < 0.001. h) Body weight changes during treatment window (mean values ± range). i) Survival data are shown by Kaplan‐Meier survival analysis. Mantel–Haenszel statistical analysis: p < 0.0001).
Representative data of n=3 biological replicates. c, IDO1 was incubated with compounds (50 µM) or DMSO (control). UV/VIS spectra were acquired at five time points to monitor heme loss over time. Data are representative of two replicates.
The test compounds or DMSO (vehicle control) were incubated with recombinant full-length human IDO1 (rhIDO1; 10 µM) in 50 mM potassium phosphate buffer (pH 6.5) for 3 h at 37 °C. Following incubation, samples were centrifuged at 5,000 × g for 10 minutes. UV/Vis absorption spectra were then recorded from 250 nm to 650 nm in 1 nm increments using UV-transparent microplates (UV-STAR®, Greiner Bio-One, Austria) on a Spark® multimode microplate reader (Tecan, Austria). Absorbance values were analyzed at 404 nm (A404), and were plotted using GraphPad Prism version 9.0 (GraphPad Software, USA).

[3] = molecular target: T3, recombinant full-length human IDO1 (Homo sapiens, UniProt P14902); assay: Thermal shift assay (nanoDSF); type: binding; conditions: 50 µM, 3 h at 37 °C
T3 construct: The GST-tag of IDO1 was removed to obtain untagged full-length IDO1l using PreScission protease; GST (N, cleaved yes); made in house; own inference
Experimental: as §1, with “0.0001). […]” for “0.0001).”
The test compounds or DMSO (vehicle control) were incubated with recombinant full-length human IDO1 (rhIDO1; 10 µM) in 50 mM potassium phosphate buffer (pH 6.5) for 3 h at 37 °C. Following incubation, samples were centrifuged at 5,000 × g for 10 minutes, then the protein-compound solutions were loaded into capillaries, and thermal unfolding was assessed using the Prometheus Panta system (NanoTemper® Technologies, Germany). Fluorescence intensities at 330 nm and 350 nm were recorded at temperature increments of 0.115 °C from 20 °C to 90 °C. Melting temperatures (Tm) were automatically calculated using Prometheus NT.48 analysis software. The resulting thermal denaturation curves, with Tm defined as the temperature at the maximum derivative of the unfolding transition, were visualized and analysed using GraphPad Prism version 9.0 (GraphPad Software, USA).

[4] = molecular target: IDO1 protein levels in BxPC3 cells (Homo sapiens, UniProt P14902); assay: IDO1 immunoblotting (degradation); type: cell-based; parameters: endogenous in cells; host or cells: BxPC3 (DSMZ), IFN-γ stimulated; conditions: for Max. degradation (%): 24 h incubation, mean ± SD; for IDO1 protein level by immunoblotting (in words): IFN-γ 24 h, washout, compounds 24 h
[5] = molecular target: T4, IDO1 protein in IFN-γ stimulated HeLa cells (Homo sapiens, UniProt P14902); assay: IDO1 immunostaining (immunofluorescence); type: cell-based; conditions: 24 h
T4 construct: endogenous in cells; host or cells: HeLa (DSMZ), IFN-γ stimulated
Experimental: Figure 3 Comparison of IDO1 degradation efficiency for selected compounds. a) Detection of IDO1 levels using immunostaining. IFN‐γ stimulated HeLa cells were treated with the compounds for 24 h. IDO1 protein abundance was detected with IDO1 antibody. Data are mean values ± SD, n = 3. b) IDO1 protein levels in BxPC3 cells upon compounds treatment were detected using immunoblotting. BxPC3 cells were treated with IFN‐γ for 24 h prior to washout, followed by addition of compounds. Representative blot and quantified band intensities are shown (mean values ± SD, n = 3). See Figure S11a S12a for the uncropped blots. c) Key functions of hit compounds that influence degradation efficiency. d) Heatmap for IDO degradation efficiency. IDO1 levels were monitored as described in (c). See Table S1 for mean values and Figure S11b for the uncropped blots. e)–g) Dose dependent degradation of IDO1 protein in BxPC3 cells treated with iDeg‐7–9 and detected as described in (c). Representative data of n = 3 except for iDeg‐9 (n = 4). See Figure S12 S13 for the uncropped blots. h) Quantification of IDO1 protein levels from e‐g (mean values ± SD, n = 3 except for iDeg‐9 (n = 4). i) Tabulated inhibition and degradation ability of iDeg‐6–9. ND: not detected. j) Volcano plot of iDeg‐6‐induced changes on the global proteome. SKOV‐3 cells were treated with 10 µM iDeg‐6 or DMSO for 4 h followed by protein extraction, tryptic digest and LC‐MS/MS analysis (n = 4). Plot generated using UMSAP (T 0 = 0.5, S 0 = 0.5).
IFN-γ-stimulated Hela cells (5 ng/mL IFN-γ) were seeded in 96-well plates and incubated for 24 h. Subsequently, IFN-γ was washed out and cells were treated with compounds for additional 24 h. Cells were then washed once with PBS and fixed with 3.7% paraformaldehyde for 10 min at room temperature. Cells were washed three times with ice-cold PBS. […] Images were analyzed by SpectraMax Paradigm microplate reader (Molecular Devices) to extract IDO1 fluorescence intensity as well as the cell count. IDO1 fluorescence intensity was normalized to cell count. […]

[6] = at 14 µM, pre-incubation 37 °C 45 min, mean ± SD

Sequence of IDO1 protein levels in BxPC3 cells (P14902 whole entry): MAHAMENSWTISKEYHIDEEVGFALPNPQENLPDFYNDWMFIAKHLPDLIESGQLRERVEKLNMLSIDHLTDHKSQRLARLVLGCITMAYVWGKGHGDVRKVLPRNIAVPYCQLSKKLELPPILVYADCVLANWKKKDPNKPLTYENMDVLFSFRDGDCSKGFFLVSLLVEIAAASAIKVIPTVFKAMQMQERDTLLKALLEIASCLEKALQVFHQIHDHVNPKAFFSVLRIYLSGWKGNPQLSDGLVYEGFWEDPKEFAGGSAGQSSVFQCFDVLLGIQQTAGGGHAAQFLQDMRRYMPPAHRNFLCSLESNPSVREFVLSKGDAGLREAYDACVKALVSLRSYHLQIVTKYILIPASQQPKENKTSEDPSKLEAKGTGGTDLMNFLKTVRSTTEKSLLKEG
T1 sequence (P14902 whole entry): as above
T4 sequence (P14902 whole entry): as above
T3 sequence (P14902 whole entry): as above
T2 sequence (P14902 whole entry): as above

| Structure (SMILES) | IC50 ([1]; Homo sapiens, BXPC-3, 48 h) | inhibition at 14 µM (recombinant human IDO1; [6]) | IDO1 activity IC50 [µM] (in vitro assay) (recombinant human IDO1; pre-incubation 37 °C 45 min) | heme displacement from holo-IDO1 (in words) [2] | shift in IDO1 melting temperature ΔTm / binding in TSA (in words) [3] | Max. degradation (%) ([4]; 10 nM) | Max. degradation (%) ([4]; 100 nM) | Degradation Efficiency (%) ([4]; 100 nM, BxPC3 cells, heatmap Fig. 3d) | IDO1 protein level by immunoblotting (in words) ([4]; BxPC3 cells) | IDO1 staining fluorescence intensity (in words) [5] | IC50 [1] | IDO1 activity Inhibition (%) (recombinant human IDO1; [6]) | in vitro IDO1 inhibition (in words) (recombinant human IDO1; up to 14 µM, incubated with IDO1 for 45 min) |
| --- | --- | --- | --- | --- | --- | --- | --- | --- | --- | --- | --- | --- | --- |
| CC(C)(C)c1ccc(S(=O)(=O)N2C[C@H]3C[C@H]4C[C@H](C4(C)C)[C@@]3(COC(=O)Nc3ccc(I)cc3)C2)cc1 [14 (iDeg-2)] | 120 ± 20 nM | < 25% | – (Inactive: >75% Kyn level observed up to a concentration of 14 µM and no IC50 value obtained) | displaced heme to a similar extent | identical binding in the TSA assay | 20 ± 9 (3) % | 37 ± 14 (3) % | 37% | modulate IDO1 abundance | reduced the fluorescence intensity of the IDO1 staining | – | – | – |
| CC(C)(C)c1ccc(S(=O)(=O)N2CC[C@@]3(C2)[C@@H]2C[C@H](C[C@H]3OC(=O)Nc3ccc(I)cc3)C2(C)C)cc1 [compound 22, (1R,2S,3R,5R)-1'-((4-(tert-butyl)phenyl)sulfonyl)-6,6-dimethylspiro[bicyclo[3.1.1]heptane-2,3'-pyrrolidin]-3-yl (4-iodophenyl)carbamate] | – | – | – (Inactive: >75% Kyn level observed up to a concentration of 14 µM and no IC50 value obtained) | displaced heme to a similar extent | identical binding in the TSA assay | – | – | – | did not reduce the IDO1 protein level | did not induce IDO1 protein degradation | 490 ± 60 nM | ns (not significant) | no activity |
